Like-named read-outs stand apart in the source and are kept apart here.
Key:
[1] = system: H4IIE cells; experiment: Cluster Analysis Toxicity Screening (CATS), combined cell number, GST, MTT and ATP assays; format: cell-based
From the text: (§1) The test compounds were received pre-weighed into glass vials. The preparation of 20 millimolar stock solutions was accomplished by adding a sufficient amount of dimethylsulfoxide (DMSO) directly into the vials. These stocks were used to prepare 200 micromolar stock solutions in DMSO. Both the 20 millimolar and 200 micromolar, stocks were used to prepare dosing solutions of 0.05, 0.1, 1.0, 5.0, 10.0, 20.0, 50.0, 100, and 300 micromolar in culture media with a final DMSO concentration of 0.5%. The stocks and dosing solutions were prepared on the day prior to dosing. The solutions were wrapped in foil and stored at 4° C. until the next morning.
(§2) Negative controls of media plus DMSO (0.5%) were included with and without cells. A digitonin (1 mM) treated group was included as a positive control for complete cell death.
(§3) Rat hepatoma derived H4IIE cells were used as the test system. The cells were obtained from ATCC (# CRL-1548) and subcultured in the laboratory. The culture medium used for these cells was Eagle's Minimum Essential Medium (MEM) with 10% Fetal Bovine Serum (FBS) and 10% calf serum. Certified FBS and calf serum were from Gibco Life Technologies.
(§4) 96-well plates were seeded with […] in 200 microliters of media 48 hour prior to dosing. On the morning of the third day after seeding, the test compounds were added to the plates in a 200 microliter volume of medium (DMSO=0.5%).
(§5) In this Example, ketoconazole was used as the test drug. Rat hepatoma cells were seeded into 96-well culture plates and allowed to establish growth for 48 hours. Following this growth phase, the cells were treated with 0, 0.05, 0.1, 1, 5, 10, 20, 50, 100, and 300 micromolar of ketoconazole in growth medium and 0.5% DMSO. […]

[2] = system: liver; details: rats; cited from earlier work
[3] = system: H4IIE cells; experiment: MTT mitochondrial function assay; format: cell-based, rat
Description: (§6) (3-(4,5-dimethylthiazol-2-yl)-2,5-diphenyl-tetrazolium bromide (MTT). After the media was removed from a plate for GST analysis, the cells remaining in each well were evaluated for their ability to reduce the tetrazolium dye to formazan via mitochondrial dehydrogenase activity. An MTT stock solution was prepared in Earl's Buffered Salt Solution (EBSS) to a final concentration of 5.0 mg/ml. This stock was diluted 10-fold with complete media (0.5 mg/ml) just prior to use and warmed to 37° C. in a water bath. In some instances the MTT powder may be added directly to complete medium to give a final concentration of 0.5-mg/ml. Once the media was removed from all wells 200 microliter, of the 0.5 mg/ml MTT solution was added to each well and the plate was allowed to incubate at 37° C. for 3-4 hours. Color development is linear over this time.
(§7) After the 3-4 hour incubation, all media was removed and the purple formazan product was extracted by adding 200 microliters, of anhydrous isopropanol. The plates were covered with foil and placed on an orbital shaker for 30 min at room temperature. Each well was aspirated with a multi-channel pipette to insure solubilization of the formzan dye and then the plate was centrifuged at 3000 rpms in a Beckman Allegra 6R centrifuge equipped with a GH3.8 rotor to remove insoluble cellular debris. Analyses were performed by transferring 100 microliters, of supernatant to a clean 96-well plate and then reading the sample absorbance at 570 nm and the reference absorbance at 650 nm with a Packard scanning spectrophotometer.
(§8) At the end of the 24 hour exposure period the media was removed and the remaining attached cells were assayed for mitochondrial function. […] Percent control values were determined by dividing the mean absorbance of the treatment group by the mean absorbance of the control group and multiplying by 100.

[4] = MTT mitochondrial function assay; format: cell-based, rat; details: rat, H4IIE rat hepatoma cells; 24 hour exposure; read-out: TC50 for MTT
Description: as §6, §7, §8

[5] = system: H4IIE cells; details: rat, 24 h
Description: (§9) Measurements of A-GST leakage from cultured cells into the media can be used to assess membrane integrity. This assay is specific for the alpha form of GST that exists at high concentrations in the cytosol of hepatocytes. An ELISA kit purchased from Biotrin Inc. was used to measure GST.
(§10) On the morning after dosing the cells (approximately 24 hours) the media covering the cells in each well was removed and placed into new 96-well plates with appropriate labeling. These media plates were stored at −80° C. until needed for analysis.
(§11) Leakage of the GST enzyme is determined by collecting the media in which the cells were exposed to the test compound at the end of the 24 hour exposure period. Thus, GST values represent total GST lost over the exposure period. The control for 100% dead or maximum GST release is based on cells treated with 1 mM digitonin at T0. Percent dead cells relative to digitonin treated cells was determined and then subtracted from 100 to yield the percent live cells.

[6] = system: isolated mitochondria; details: cited from earlier work
[7] = system: liver; details: humans; cited from earlier work
[8] = system: H4IIE cells; experiment: ATP assay (ATP-Lite); format: cell-based, rat
Description: Cellular Adenosine triphosphate (ATP) was determined with the ATP-Lite kit from Packard Instruments according to the manufacturer's instructions. This assay is based on a reaction between ATP+D-luciferin+oxygen catalyzed by luciferase to yield Oxyluciferin+AMP+PPi+CO2+light. The emitted light is proportional to the amount of ATP present. Rather than a “flash” type signal which has a very short half-life, this assay utilizes a “glow” technology that extends the signal half-life to 5 hours. In addition, a unique cell lysis reagent inhibits endogenous ATPases and therefore stabilizes cellular ATP by preventing its degradation to ADP.. ATP is present in all living cells and declines rapidly upon cell death. In addition, this assay in combination with the MTT assay provides an indicator of mitochondrial activity and the energy status of the cell.
Changes in ATP may be expressed as a percent change relative to controls by dividing the mean treatment luminescence values by the control values and multiplying by 100. An actual amount of ATP can also be determined by including an ATP calibration curve in the assay and then converting the luminescence response to an ATP concentration with the regression coefficients. Finally, it is possible to estimate the amount of ATP produced per cell, by dividing the pmol ATP data by cell number. Typically, cells try to maintain a stable level of ATP and therefore this parameter is not routinely calculated unless information on the stability of the ATP pool is desired.

[9] = system: H4IIE cells; experiment: Cell proliferation (CYQUANT) cell number assay; format: cell-based, rat
Description: Cell number in each well was determined with the CYQUANT® cell proliferation kit from Molecular Probes. This assay is based on a DNA-specific binding dye that fluoresces upon interaction with DNA. Conversion to cell number is achieved by comparing sample fluorescence units to a standard curve based on fluorescence units/cell. The assay was performed essentially as described by the manufacturer with the following exceptions: The digitonin (1 mM) or Triton X 100 (1%) was added to the lysis buffer. The lysis buffer was added to the plates immediately after removing the plates from the −80° C. freezer. The plates were shaken for 20 min prior to reading the fluorescence.
Cell number was determined by establishing a calibration curve. In order to obtain fluorescence units (FU) per cell 1×10^6 cells were placed in a tube and centrifuged to a pellet. The pellet was then resuspended in 1 milliliters of a cell lysis buffer containing the DNA binding dye. Thus, one million cells in 1000 milliliters yields a relationship of 1000 cells per microliter of suspension. This provides FU/cell. Cell number for samples was determined by applying the FU obtained to the calibration curve. The percent change relative to controls was determined by dividing the treatment cell number by the control cell number and multiplying by 100.

[10] = Cluster Analysis Toxicity Screening (CATS), combined cell number, GST, MTT and ATP assays; format: cell-based; details: rat, 24 hour exposure
From the text: as §1, §2, §3, §4, §5

[11] = system: H4IIE cells; experiment: Glutathione S-transferase (GST) leakage assay (membrane integrity); details: 6 hour exposure
Description: as §9, §10, §11

SMILES: C[S+](C)[O-] [DMSO, dimethylsulfoxide]
- concentrations with no effects on cell proliferation, MTT and GST ([1]; rat): below 2%

SMILES: C[C@@H]1[C@H](O)[C@@H](C)/C=C/C=C/C=C/C=C/C=C/C=C/C=C/[C@H](O[C@@H]2O[C@H](C)[C@@H](O)[C@H](N)[C@@H]2O)C[C@@H]2O[C@](O)(C[C@@H](O)C[C@@H](O)[C@H](O)CC[C@@H](O)C[C@@H](O)CC(=O)O[C@H]1C)C[C@H](O)[C@H]2C(=O)O [amphotericin]
- influence of final DMSO concentration on toxicity [1]: No significant differences in toxicity

SMILES: O=C(N[C@H](CO)[C@H](O)c1ccc([N+](=O)[O-])cc1)C(Cl)Cl [chloramphenical]
- change of TC50 with exposure time ([1]; time course over a 72 hour exposure period, H4IIE cells): largest shift in TC50 values occurred between 24 and 48 hours

SMILES: CC(=O)N1CCN(c2ccc(OCC3COC(Cn4ccnc4)(c4ccc(Cl)cc4Cl)O3)cc2)CC1 (centres unmarked) [ketoconazole]
- sustained plasma concentration producing hepatic damage [2]: 60 µM
- concentration of early toxic effects in MTT assay ([3]; 24 hour exposure): below 20 micromolar
- effect on MTT ([3]; 24 hour exposure): reduced
- CC50 at 24 h [4]: 70 µM
- concentrations at which not toxic to cells by GST leakage [5]: below 300 micromolar
- effect on State III respiration [6]: direct inhibition
- sustained plasma concentration resulting in liver toxicity [7]: 30 µM
- effect on ATP [8]: reduced
- concentration of early toxic effects in ATP assay ([8]; rat, 24 h): below 20 micromolar
- effect on cell number ([9]; 24 hour exposure): dose-related reduction in cell number
- influence of final DMSO concentration on toxicity [1]: No significant differences in toxicity
- Ctox, estimated plasma concentration that would produce toxicity ([1]; rat, 24 h): 20 µM
- change of TC50 with exposure time ([1]; rat, 72 h): largest shift in TC50 values occurred between 24 and 48 hours
- CC50 at 24 h ([10]; cell number, ATP, GST, read-out: TC50 for all other endpoints (than MTT)): > 100 µM
- CC50 at 24 h ([10]; H4IIE cells, all parameters, read-out: TC50 values): ≥ 50 µM
- CC50 at 24 h ([10]; H4IIE cells, cell number, GST leakage, MTT, ATP, read-out: TC50, all parameters measured): ≥ 50 µM

SMILES: CC[C@H]1/C=C/C=C/C[C@@H](C)[C@H](O)[C@@](C)(O)C(=O)[C@@H](C)[C@H](O)[C@@H](C)C(=O)[C@@H](C)[C@H](O)[C@@H](C)/C=C/C(=O)O[C@@H]2[C@H](C)[C@H](CC1)O[C@]1(CC[C@H](C)[C@H](C[C@@H](C)O)O1)[C@H]2C [oligomycin]
- effect on GST leakage [11]: unaffected
- effect on MTT ([3]; 6 hour exposure): significantly reduced
- effect on ATP ([8]; 6 hour exposure): completely depleted
- effect on cell number ([9]; 6 hour exposure): unaffected

From patent publication US6998249B1, “Toxicity screening method” (priority 1999, dated 2006)
